Assay results published in patent US5229398A, “Aminomethylpiperidine compounds” (Adir et Compagnie, priority 1990, dated 1993).
Counter-ions that a name gives are not always drawn. Like-named read-outs stand apart in the source and are kept apart here.

Tests used:
[1] = biological target: T1, 5-HT1A receptors (Rattus norvegicus, UniProt P19327); experiment: Affinity for 5-HT1A receptors in vitro ([3H]-8-OH-DPAT binding, rat hippocampus membranes); design: from tissue; host or cells: hippocampus membranes of male Wistar rats; species or system male Wistar rats
T1 sequence (P19327 1-422): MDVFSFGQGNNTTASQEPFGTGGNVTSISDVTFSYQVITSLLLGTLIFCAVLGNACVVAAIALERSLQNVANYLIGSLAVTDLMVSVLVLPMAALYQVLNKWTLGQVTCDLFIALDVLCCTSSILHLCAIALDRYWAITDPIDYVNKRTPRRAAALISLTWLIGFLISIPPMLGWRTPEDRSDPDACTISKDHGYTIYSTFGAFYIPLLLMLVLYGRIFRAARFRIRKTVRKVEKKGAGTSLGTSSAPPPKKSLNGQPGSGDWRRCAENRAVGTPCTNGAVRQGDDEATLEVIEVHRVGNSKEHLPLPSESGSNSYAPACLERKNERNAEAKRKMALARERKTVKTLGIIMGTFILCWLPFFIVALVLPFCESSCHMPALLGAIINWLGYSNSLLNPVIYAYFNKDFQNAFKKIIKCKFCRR
Protocol: The tests were carried out on tissue from the hippocampus of decapitated male Wistar rats. The rats were sacrificed 48 hours before the experiment and the isolated tissues were preserved at -86° C.
In order to prepare the membranes, the tissues were homogenized at 0° C. in 20 volumes of 50 mM Tris HCl buffer solution (pH 7.7, adjusted with 5N HCl at 25° C.), with a Polytron homogenizer for 6 seconds. The whole was then centrifuged (35,000 g for 20 minutes at 4° C.). Homogenization followed by centrifugation was repeated a second time under the same conditions. The pellet thus obtained was suspended for a final time in 20 volumes of the above buffer, incubated for 15 minutes at 37° C., then again centrifuged. […]
The compounds to be tested were put into solution in the incubation buffer. Test solutions were prepared by placing in 12×75 mm glass tubes, 10 μl of the solution of the compounds to be tested, 100 μl of a solution containing […] of [^3 H]-8-OH-DPAT (specific radioactivity 205 Ci/mmol). Non-specific binding was determined with the aid of a solution of 5-hydroxytryptamine (10 μM), and represented 5 to 10% of the final binding. […] Radioactivity was then determined with the aid of external standards.
The pKi values were determined by the CheungPrusoff equation: [formula]

[2] = biological target: T1, 5-HT1A receptors; experiment: In vivo test of "tail-flicks" (antagonism of 8-OH-DPAT-induced spontaneous tail movements); design: from tissue; host or cells: whole rat in vivo; details: subcutaneous injection; for ED50: sc, against subcutaneous 8-OH-DPAT, read-out: ED50, the amount which reduces the action of 8-OH-DPAT by 50%
Excerpt: The potential of the compounds of the invention to act in vivo on the 5-HT1A receptors was brought out following a method perfected by Millan et al. (Neurosci. Lett., 1989, 107, 227-232). […] This model then was used to evaluate the potential of the compounds of the invention administered by subcutaneous injection, to interact with the 5-HT1A receptors in the rat. The ED50, that is the amount which reduces the action of 8-OH-DPAT by 50%, was thus determined.

[3] = biological target: T1, 5-HT1A receptors; design: from tissue; host or cells: whole rat in vivo; details: subcutaneous injection; cited from earlier work
[4] = biological target: T1, 5-HT1A receptors; design: The tests were carried out on tissue from the hippocampus of decapitated male Wistar rats; from tissue; host or cells: hippocampus membranes of male Wistar rats; details: reference ligand 8-OH-DPAT; cited from earlier work

SMILES | Ki ([1]; rat hippocampus, [3H]-8-OH-DPAT, 30 minutes at 37° C., pKi by CheungPrusoff equation, read-out: pKi (converted)) | ED50 [2] | properties towards the 5-HT1A receptors (in words) [2] | Ki [1] | induction of spontaneous movements of the tail (in words) [3] | affinity for the 5-HT1A sites of the reference (in words) [4] | selectivity for the 5-HT1A sites of the reference (in words) [4]
COc1ccccc1OCCNCC1CCN(c2nc3ccccc3o2)CC1.Cl.Cl [Example 44, 1-(BENZOXAZOL-2-YL)-4-[[2-(2-METHOXYPHENOXY)ETHYL]AMINOMETHYL]PIPERIDINE DIHYDROCHLORIDE] | 1 nM | 0.31 mg/kg | antagonist properties | – | – | – | –
COc1cccc2c1OC(CNCC1CCN(c3nc4ccccc4s3)CC1)CO2 (stereo not drawn) [Example 16, 1-(BENZOTHIAZOL-2-YL)-4-[(8-METHOXY-1,4-BENZODIOXAN-2-YL)-METHYLAMINOMETHYL]PIPERIDINE DIHYDROCHLORIDE] | – | 0.31 mg/kg | antagonist properties | 0.501 nM | – | – | –
CCCN(CCC)C1CCc2cccc(O)c2C1 (stereo not drawn) [Example 8-OH-DPAT, 8-hydroxy-2-(dipropylamino)tetraline] | – | – | – | – | marked spontaneous movements of the tail | very great affinity | great selectivity
